The source of these data is patent US20240376097A1, “BCL-2 Inhibitor” (BeiGene Ltd., priority 2020, published 2024).

For assay [1], the target named is Recombinant human Bcl-2 protein (Homo sapiens (Human), UniProt P10415). Kind of assay: Bcl-2 TR-FRET Assay. Format: binding. An outline of the steps: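 Displacement of FITC-labelled Bak peptide (0.5 nM) from 0.05 nM human Bcl-2, detected by TR-FRET with Tb-cryptate anti-6His antibody after 1 h at room temperature. Compounds, 10-point series, preincubated 0.5 h with protein in 20 mM potassium phosphate pH 7.5, 50 mM NaCl. IC50s fitted by four-parameter logistic.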
On the technique in general: In TR-FRET formats the signal depends on donor and acceptor labels being close together.

Assay [2] concerns the target recombinant human Bcl-2-G101V protein (Homo sapiens (Human), UniProt P10415, G101V). Kind of assay: Bcl-2-G101V TR-FRET Assay. The note with it: Bcl-2 G101V mutant, TR-FRET; read-out: Biochemical assay (IC50, nM) Bcl-2 G101V. The assay is classed as binding. An outline of the steps:
(§1)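 IC50 values derive from four-parameter logistic fitting of percent inhibition data. That inhibition of ligand binding to Bcl-2-G101V is computed from the 490 nm/520 nm TR-FRET ratio under 337 nm excitation, over a rising compound concentration series.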

For assay [3], the system named is recombinant human Bcl-2-G101V protein. Put plainly: Bcl-2-G101V TR-FRET Assay. Format: binding. Conditions: ratio of biochemical IC50 Bcl-2 G101V / Bcl-2 WT. An outline of the steps:
as §1

Assay [4] has as its target recombinant human Bcl-2 D103Y protein (Homo sapiens (Human), UniProt P10415, D103Y). Kind of assay: Bcl-2-D103Y Biochemical Assay (TR-FRET). Format: binding. The note with it: for IC50: TR-FRET, FITC labeled Bak peptide; for Ratio of Bcl-2 D103Y/Bcl-2 WT: ratio of IC50. An outline of the steps: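 Compounds titrated against the Bcl-2 D103Y–ligand interaction; inhibition derived from the TR-FRET emission ratio 490 nm/520 nm after 337 nm excitation. Four-parameter logistic fitting gave IC50.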

Assay [5] relates to BCL-2 G101V knock-in cell line H96 (derive from RS4;11). Put plainly: Bcl 2-G101V Knock-In RS4;11 Cell Proliferation Assay. Format: cell-based. Conditions: Homo sapiens, RS4;11 Bcl-2 G101V knock-in clone H96, 48 hrs, CellTiter-GLO, read-out: Cellular proliferation assay (IC50, nM) RS4. In outline: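 CellTiter-Glo luminescence after 48 h, 37 °C compound treatment (10 concentrations, maximum 1 μM or 10 μM) gave mean IC50 values. Cells were 50,000 per well of H96, a BCL2-G101V knock-in single clone derived from RS4;11 by Cas9 editing.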

Assay [6] deals with RS4;11 (BCL-2 dependent acute lymphoblastic leukemia cell line). Put plainly: RS4;11 Cell Proliferation Assay. Format: cell-based. Conditions: Homo sapiens, RS4-11, RS4;11 cells, read-out: Cellular proliferation assay (IC50, nM) RS4. An outline of the steps: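 Viability measured via CellTiter-Glo luminescence after a 48 h, 37 °C exposure to compounds (10 points, highest 1 μM). Seeding was 50,000 RS4;11 cells per well in 10% FBS RPMI-1640; IC50 given as mean.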

Where [7] appears, read: Bcl-2 wild type, TR-FRET, read-out: Biochemical assay (IC50, nM) Bcl-2 WT.
Where [8] appears, read: wild type Bcl-2, unit inferred, read-out: Bcl-2 WT.

Read-outs that look alike come from different tables or passages of the source.

`[2H]C([2H])([2H])Oc1ccc(CN2CCN(C3CC4(C3)CN(c3ccc(C(=O)NS(=O)(=O)c5ccc(NC[C@H]6CC[C@](C)(O)CC6)c([N+](=O)[O-])c5)c(Oc5cnc6[nH]ccc6c5)c3)C4)[C@H](c3ccccc3C(C)C)C2)cc1OC([2H])([2H])[2H]` [Example 243, 2-((1H-pyrrolo[2,3-b]pyridin-5-yl)oxy)-4-(6-((R)-4-(3,4-bis(methoxy-d3)benzyl)-2-(2-isopropylphenyl)piperazin-1-yl)-2-azaspiro[3.3]heptan-2-yl)-N-((4-((((1r,4r)-4-hydroxy-4-methylcyclohexyl)methyl)amino)-3-nitrophenyl)sulfonyl)benzamide]: the IC50 in assay [1] (setting [7]) is 0.04 nM; in assay [1] (setting [8]) it was 0.041 nM; in assay [2], 0.086 nM; in assay [4] it was 0.041 nM; in assay [5], 0.22 nM; in assay [6] it was 0.12 nM. For the same compound, the “Ratio of Bcl-2 G101V/WT” value in assay [3] was found to be 2.1. Also, the “Ratio of Bcl-2 D103Y/Bcl-2 WT” value in assay [4] was determined as 1.

For the compound `COc1cc(CN2CCN(C3CC4(CCN(c5ccc(C(=O)NS(=O)(=O)c6ccc(NC[C@H]7CC[C@](C)(O)CC7)c([N+](=O)[O-])c6)c(Oc6cnc7[nH]cc(F)c7c6)c5)CC4)C3)[C@H](c3ccccc3C(C)C)C2)ccc1C1CC1` [Example 258, 4-(2-((R)-4-(4-cyclopropyl-3-methoxybenzyl)-2-(2-isopropylphenyl)piperazin-1-yl)-7-azaspiro[3.5]nonan-7-yl)-2-((3-fluoro-1H-pyrrolo[2,3-b]pyridin-5-yl)oxy)-N-((4-((((1r,4r)-4-hydroxy-4-methylcyclohexyl)methyl)amino)-3-nitrophenyl)sulfonyl) benzamide], the IC50 in assay [1] (setting [7]) turned out to be 0.85 nM; in assay [1] (setting [8]) it was 0.85 nM; in assay [2] it was 1.75 nM; in assay [4] it was 1.5 nM; in assay [5], 0.28 nM; in assay [6] it was 0.11 nM. In assay [3], the “Ratio of Bcl-2 G101V/WT” value amounted to 2.1. In addition, the “Ratio of Bcl-2 D103Y/Bcl-2 WT” value in assay [4] was 1.8.

For `COc1cc(CN2CCN(C3CC4(CCN(c5ccc(C(=O)NS(=O)(=O)c6ccc(NC[C@H]7CC[C@](C)(O)CC7)c([N+](=O)[O-])c6)c(Oc6cnc7[nH]ccc7c6)c5)CC4)C3)[C@H](c3ccccc3C(C)C)C2)ccc1C` [Example 260, 2-((1H-pyrrolo[2,3-b]pyridin-5-yl)oxy)-N-((4-((((1r,4r)-4-hydroxy-4-methylcyclohexyl)methyl)amino)-3-nitrophenyl)sulfonyl)-4-(2-((R)-2-(2-isopropylphenyl)-4-(3-methoxy-4-methylbenzyl)piperazin-1-yl)-7-azaspiro[3.5]nonan-7-yl)benzamide], the IC50 in assay [1] (setting [7]) is 0.34 nM; in assay [1] (setting [8]) it was 0.24 nM; in assay [2], 0.75 nM; in assay [4] it was 0.27 nM; in assay [5], 0.33 nM; in assay [6] it was 0.13 nM. Besides, the “Ratio of Bcl-2 G101V/WT” value in assay [3] was 2.2. In addition, the “Ratio of Bcl-2 D103Y/Bcl-2 WT” value in assay [4] amounted to 1.1.

Take `CCc1ccc(CN2CCN(C3CC4(C3)CN(c3ccc(C(=O)NS(=O)(=O)c5ccc(NC[C@H]6CC[C@](C)(O)CC6)c([N+](=O)[O-])c5)c(Oc5cnc6[nH]cc(F)c6c5)c3)C4)[C@H](c3ccccc3C(C)C)C2)cc1OC` [Example 268, 4-(6-((R)-4-(4-ethyl-3-methoxybenzyl)-2-(2-isopropylphenyl)piperazin-1-yl)-2-azaspiro[3.3]heptan-2-yl)-2-((3-fluoro-1H-pyrrolo[2,3-b]pyridin-5-yl)oxy)-N-((4-((((1r,4r)-4-hydroxy-4-methylcyclohexyl)methyl)amino)-3-nitrophenyl)sulfonyl) benzamide]: the IC50 turned out to be 0.79 nM in assay [1] (setting [7]); 0.79 nM in assay [1] (setting [8]); 1.3 nM in assay [2]; 0.88 nM in assay [4]; 0.25 nM in assay [5]; 0.1 nM in assay [6]. For the same compound, the “Ratio of Bcl-2 G101V/WT” value in assay [3] is given as 1.6. The “Ratio of Bcl-2 D103Y/Bcl-2 WT” value in assay [4] was 1.1.

In the case of `COc1cc(CN2CCN(C3CC4(CCN(c5ccc(C(=O)NS(=O)(=O)c6ccc(NC[C@H]7CC[C@](C)(O)CC7)c([N+](=O)[O-])c6)c(Oc6cnc7[nH]cc(F)c7c6)c5)CC4)C3)[C@H](c3ccccc3C(C)C)C2)ccc1C` [Example 273, 2-((3-fluoro-1H-pyrrolo[2,3-b]pyridin-5-yl)oxy)-N-((4-((((1r,4r)-4-hydroxy-4-methylcyclohexyl)methyl)amino)-3-nitrophenyl)sulfonyl)-4-(2-((R)-2-(2-isopropylphenyl)-4-(3-methoxy-4-methylbenzyl)piperazin-1-yl)-7-azaspiro[3.5]nonan-7-yl)benzamide], the IC50 worked out at 0.7 nM in assay [1] (setting [7]); 0.7 nM in assay [1] (setting [8]); 1.9 nM in assay [2]; 0.82 nM in assay [4]; 0.46 nM in assay [5]; 0.25 nM in assay [6]. In assay [3], the “Ratio of Bcl-2 G101V/WT” value is 2.6. The “Ratio of Bcl-2 D103Y/Bcl-2 WT” value in assay [4] came out at 1.2.

For the compound `COc1cc(CN2CCN(C3CC4(C3)CN(c3ccc(C(=O)NS(=O)(=O)c5ccc(NC[C@H]6CC[C@](C)(O)CC6)c([N+](=O)[O-])c5)c(Oc5cnc6[nH]ccc6c5)c3)C4)[C@H](c3ccccc3C(C)C)C2)ccc1C` [Example 275, 2-((1H-pyrrolo[2,3-b]pyridin-5-yl)oxy)-N-((4-((((1r,4r)-4-hydroxy-4-methylcyclohexyl)methyl)amino)-3-nitrophenyl)sulfonyl)-4-(6-((R)-2-(2-isopropylphenyl)-4-(3-methoxy-4-methylbenzyl)piperazin-1-yl)-2-azaspiro[3.3]heptan-2-yl)benzamide], the IC50 in assay [1] (setting [7]) is 0.27 nM; in assay [1] (setting [8]), 0.27 nM; in assay [2], 0.54 nM; in assay [4], 0.21 nM; in assay [5], 0.38 nM; in assay [6] it was 0.14 nM. The “Ratio of Bcl-2 G101V/WT” value in assay [3] stood at 2. In assay [4], the “Ratio of Bcl-2 D103Y/Bcl-2 WT” value is listed as 0.76.

As for `CC(C)c1ccccc1[C@@H]1CN(Cc2ccc3c(c2)OCCC3)CCN1C1CC2(CCN(c3ccc(C(=O)NS(=O)(=O)c4ccc(NC[C@H]5CC[C@](C)(O)CC5)c([N+](=O)[O-])c4)c(Oc4cnc5[nH]ccc5c4)c3)CC2)C1` [Example 282], the IC50 in assay [1] (setting [7]) was 0.25 nM; in assay [1] (setting [8]), 0.25 nM; in assay [2], 0.97 nM; in assay [4] it was 0.47 nM; in assay [5], 4.2 nM; in assay [6], 0.36 nM. The “Ratio of Bcl-2 G101V/WT” value in assay [3] is listed as 3.9. The “Ratio of Bcl-2 D103Y/Bcl-2 WT” value in assay [4] stood at 1.9.

For `COc1cc(CN2CCN(C3CC4(CCN(c5ccc(C(=O)NS(=O)(=O)c6ccc(NC[C@H]7CC[C@](C)(O)CC7)c([N+](=O)[O-])c6)c(Oc6cnc7[nH]ccc7c6)c5)CC4)C3)[C@H](c3ccccc3C(C)C)C2)ccc1C(F)F` [Example 288, 2-((1H-pyrrolo[2,3-b]pyridin-5-yl)oxy)-4-(2-((R)-4-(4-(difluoromethyl)-3-methoxybenzyl)-2-(2-isopropylphenyl)piperazin-1-yl)-7-azaspiro[3.5]nonan-7-yl)-N-((4-((((1r,4r)-4-hydroxy-4-methylcyclohexyl)methyl)amino)-3-nitrophenyl)sulfonyl)benzamide], the IC50 in assay [1] (setting [7]) turned out to be 0.52 nM; in assay [1] (setting [8]), 0.52 nM; in assay [2], 1.3 nM; in assay [4], 0.43 nM; in assay [5], 0.87 nM; in assay [6] it was 0.19 nM. Further, the “Ratio of Bcl-2 G101V/WT” value in assay [3] amounted to 2.5. For the same compound, the “Ratio of Bcl-2 D103Y/Bcl-2 WT” value in assay [4] is reported as 0.84.

As for `COc1cc(CN2CCN(C3CC4(C3)CN(c3ccc(C(=O)NS(=O)(=O)c5ccc(NC[C@H]6CC[C@](C)(O)CC6)c([N+](=O)[O-])c5)c(Oc5cnc6[nH]cc(F)c6c5)c3)C4)[C@H](c3ccccc3C(C)C)C2)cc2c1OCC2(C)C` [Example 295, 2-((3-fluoro-1H-pyrrolo[2,3-b]pyridin-5-yl)oxy)-N-((4-((((1r,4r)-4-hydroxy-4-methylcyclohexyl)methyl)amino)-3-nitrophenyl)sulfonyl)-4-(6-((R)-2-(2-isopropylphenyl)-4-((7-methoxy-3,3-dimethyl-2,3-dihydrobenzofuran-5-yl)methyl)piperazin-1-yl)-2-azaspiro[3.3]heptan-2-yl)benzamide], the IC50 in assay [1] (setting [7]) was determined as 0.19 nM; in assay [1] (setting [8]), 0.19 nM; in assay [2], 0.56 nM; in assay [4], 0.25 nM; in assay [5], 0.49 nM; in assay [6] it was 0.29 nM. Also, the “Ratio of Bcl-2 G101V/WT” value in assay [3] is recorded as 3.0. For the same compound, the “Ratio of Bcl-2 D103Y/Bcl-2 WT” value in assay [4] amounted to 1.3.
